The subject of this test is PDE4. The test can be described thus: PDE4 inhibition, scintillation proximity assay (SPA).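 Note: A below 100 nM B 100 to below 1000 nM C 1000 nM or more.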 The following applies: scintillation proximity assay (SPA); evaluated as classes A, B, C; read-out: PDE4 Inhibitory Activity (concentration for the inhibition rate of 50%). It is filed as biochemical. In short, it runs like this:
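Compound pre-diluted 1:10 in 50 mM Tris-HCl pH 7.4, 8.3 mM MgCl2, 1.7 mM EGTA, 3 mg/mL BSA, then incubated with PDE4 and [2,8-3H]-cAMP for 120 min at room temperature. Product captured on ZnSO4-containing YSi-SPA beads for 15 min; radioactivity counted against no-enzyme blank and DMSO control.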
Take `O=C(O)COC(c1ccc(-c2nccs2)c2oc(N3CC4CC(C3)N4)nc12)C(F)(F)F` (centres unmarked) [Example 253, 2-(1-(2-(3,6-Diazabicyclo[3.1.1]heptan-3-yl)-7-(thiazol-2-yl)benzo[d]oxazol-4-yl)-2,2,2-trifluoroethoxy)acetic acid]: the IC50 is less than 0.1 µM.
With `CC(C)(O)COC(c1ccc(-c2nccs2)c2oc(N3CC4CC(C3)N4)nc12)C(F)(F)F` (centres unmarked) [Example 255], the IC50 was less than 0.1 µM.
Take `NC(=O)COC(c1ccc(-c2nccs2)c2oc(N3CC4CC(C3)N4)nc12)C(F)(F)F` (centres unmarked) [Example 256, 2-(1-(2-(3,6-Diazabicyclo[3.1.1]heptan-3-yl)-7-(thiazol-2-yl)benzo[d]oxazol-4-yl)-2,2,2-trifluoroethoxy)acetamide]: the IC50 is less than 0.1 µM.
Next, `CC(C)(O)C(F)(F)OC(c1ccc(-c2nccs2)c2oc(N3CC4CC(C3)N4)nc12)C(F)(F)F` (centres unmarked) [Example 257, 1-(1-(2-(3,6-Diazabicyclo[3.1.1]heptan-3-yl)-7-(thiazol-2-yl)benzo[d]oxazol-4-yl)-2,2,2-trifluoroethoxy)-1,1-difluoro-2-methylpropan-2-ol]: less than 0.1 µM; `OCC(F)(F)OC(c1ccc(-c2nccs2)c2oc(N3CC4CC(C3)N4)nc12)C(F)(F)F` (centres unmarked) [Example 258, 2-(1-(2-(3,6-Diazabicyclo[3.1.1]heptan-3-yl)-7-(thiazol-2-yl)benzo[d]oxazol-4-yl)-2,2,2-trifluoroethoxy)-2,2-difluoroethan-1-ol]: less than 0.1 µM.
Next, `C[C@H](O)COc1ccc(-c2nccs2)c2oc(N3CC4CC(C3)N4)nc12` [Example 260, (2S)-1-((2-(3,6-diazabicyclo[3.1.1]heptan-3-yl)-7-(thiazol-2-yl)benzo[d]oxazol-4-yl)oxy)propan-2-ol]: less than 0.1 µM; `CC(O)COC(c1ccc(-c2nccs2)c2oc(N3CC4CC(C3)N4)nc12)C(F)(F)F` (centres unmarked) [Example 261, 1-(1-(2-(3,6-Diazabicyclo[3.1.1]heptan-3-yl)-7-(thiazol-2-yl)benzo[d]oxazol-4-yl)-2,2,2-trifluoroethoxy)propan-2-ol]: less than 0.1 µM.
The same measure for `c1csc(-c2ccc(OC3CCCOC3)c3nc(N4CC5CCC(C4)N5)oc23)n1` (centres unmarked) [Example 262, 2-(3,8-Diazabicyclo[3.2.1]octan-3-yl)-4-((tetrahydro-2H-pyran-3-yl)oxy)-7-(thiazol-2-yl)benzo[d]oxazole]: less than 0.1 µM.
As for `FC(F)Oc1ccc(-c2nccs2)c2oc(N3CC4CCC(C3)N4)nc12` [Example 263, 2-(3,8-Diazabicyclo[3.2.1]octan-3-yl)-4-(difluoromethoxy)-7-(thiazol-2-yl)benzo[d]oxazole], the IC50 is less than 0.1 µM.
Turning to `CC(C)(O)COc1ccc(-c2nccs2)c2oc(N3CC4CCC(C3)N4)nc12` [Example 264, 1-((2-(3,8-Diazabicyclo[3.2.1]octan-3-yl)-7-(thiazol-2-yl)benzo[d]oxazol-4-yl)oxy)-2-methylpropan-2-ol], the IC50 is less than 0.1 µM.
Next, `CC(O)C(F)(F)OC(c1ccc(-c2nccs2)c2oc(N3CC4CC(C3)N4)nc12)C(F)(F)F` (centres unmarked) [Example 265, 1-(1-(2-(3,6-Diazabicyclo[3.1.1]heptan-3-yl)-7-(thiazol-2-yl)benzo[d]oxazol-4-yl)-2,2,2-trifluoroethoxy)-1,1-difluoropropan-2-ol]: less than 0.1 µM; `N#CC1CC(Oc2ccc(-c3nccs3)c3oc(N4CC5CC(C4)N5)nc23)C1` (centres unmarked) [Example 266, 3-((2-(3,6-Diazabicyclo[3.1.1]heptan-3-yl)-7-(thiazol-2-yl)benzo[d]oxazol-4-yl)oxy)cyclobutane-1-carbonitrile]: less than 0.1 µM.
Next, `CC(C)(O)C1CC(Oc2ccc(-c3nccs3)c3oc(N4CC5CC(C4)N5)nc23)C1` (centres unmarked) [Example 267, 2-(3-((2-(3,6-Diazabicyclo[3.1.1]heptan-3-yl)-7-(thiazol-2-yl)benzo[d]oxazol-4-yl)oxy)cyclobutyl)propan-2-ol]: less than 0.1 µM; `CC(C)(CO)Oc1ccc(-c2nccs2)c2oc(N3CC4CC(C3)N4)nc12` [Example 268, 2-((2-(3,6-Diazabicyclo[3.1.1]heptan-3-yl)-7-(thiazol-2-yl)benzo[d]oxazol-4-yl)oxy)-2-methylpropan-1-ol]: less than 0.1 µM.
The same measure for `OC1(c2cc(-c3nccs3)c3oc(N4CC5CC(C4)N5)nc3c2OC(F)(F)F)CC1` [Example 269, 1-(2-(3,6-Diazabicyclo[3.1.1]heptan-3-yl)-7-(thiazol-2-yl)-4-(trifluoromethoxy)benzo[d]oxazol-5-yl)cyclopropan-1-ol]: less than 0.1 µM; for `CC(O)(c1ccc(-c2nccs2)c2oc(N3CC4CC(C3)N4)nc12)C(F)(F)F` (centres unmarked) [Example 270, 2-(2-(3,6-Diazabicyclo[3.1.1]heptan-3-yl)-7-(thiazol-2-yl)benzo[d]oxazol-4-yl)-1,1,1-trifluoropropan-2-ol]: less than 0.1 µM; for `CC(O)(c1ccc(-c2nccs2)c2oc(N3CC4CC(C3)N4)nc12)C(F)(F)F` (centres unmarked) [Example 271, 2-(2-(3,6-Diazabicyclo[3.1.1]heptan-3-yl)-7-(thiazol-2-yl)benzo[d]oxazol-4-yl)-1,1,1-trifluoropropan-2-ol]: less than 0.1 µM.
As for `CC(O)c1cc(-c2nccs2)c2oc(N3CC4CC(C3)N4)nc2c1OC(F)(F)F` (centres unmarked) [Example 272, 1-(2-(3,6-Diazabicyclo[3.1.1]heptan-3-yl)-7-(thiazol-2-yl)-4-(trifluoromethoxy)benzo[d]oxazol-5-yl)ethan-1-ol], the IC50 was less than 0.1 µM.
The same measure for `CC(O)c1cc(-c2nccs2)c2oc(N3CC4CC(C3)N4)nc2c1OC(F)(F)F` (centres unmarked) [Example 273, 1-(2-(3,6-Diazabicyclo[3.1.1]heptan-3-yl)-7-(thiazol-2-yl)-4-(trifluoromethoxy)benzo[d]oxazol-5-yl)ethan-1-ol]: less than 0.1 µM; for `OC1(c2cc(-c3nccs3)c3oc(N4CC5CCC(C4)N5)nc3c2OC(F)(F)F)CC1` [Example 274, 1-(2-(3,8-Diazabicyclo[3.2.1]octan-3-yl)-7-(thiazol-2-yl)-4-(trifluoromethoxy)benzo[d]oxazol-5-yl)cyclopropan-1-ol]: less than 0.1 µM; for `OC(c1cc(-c2nccs2)c2oc(N3CC4CCC(C3)N4)nc2c1OC(F)(F)F)C(F)F` (centres unmarked) [Example 275, 1-(2-(3,8-Diazabicyclo[3.2.1]octan-3-yl)-7-(thiazol-2-yl)-4-(trifluoromethoxy)benzo[d]oxazol-5-yl)-2,2-difluoroethan-1-ol]: less than 0.1 µM.
For the compound `OC(c1cc(-c2nccs2)c2oc(N3CC4CCC(C3)N4)nc2c1OC(F)(F)F)C(F)F` (centres unmarked) [Example 276, 1-(2-(3,8-Diazabicyclo[3.2.1]octan-3-yl)-7-(thiazol-2-yl)-4-(trifluoromethoxy)benzo[d]oxazol-5-yl)-2,2-difluoroethan-1-ol], the IC50 was less than 0.1 µM.
On to `OC(COc1ccc(-c2nccs2)c2oc(N3CC4CC(C3)N4)nc12)C(F)(F)F` (centres unmarked) [Example 277, 3-((2-(3,6-Diazabicyclo[3.1.1]heptan-3-yl)-7-(thiazol-2-yl)benzo[d]oxazol-4-yl)oxy)-1,1,1-trifluoropropan-2-ol], for which the IC50 is less than 0.1 µM.
For the compound `FC(F)Oc1ccc(-c2nccs2)c2oc(N3CC4CC(C3)N4)nc12` [Example 278, 2-(3,6-Diazabicyclo[3.1.1]heptan-3-yl)-4-(difluoromethoxy)-7-(thiazol-2-yl)benzo[d]oxazole], the IC50 is less than 0.1 µM.
The same measure for `CC(C)(O)COc1ccc(-c2nccs2)c2oc(N3CC4CC(C3)N4)nc12` [Example 279, 1-((2-(3,6-Diazabicyclo[3.1.1]heptan-3-yl)-7-(thiazol-2-yl)benzo[d]oxazol-4-yl)oxy)-2-methylpropan-2-ol]: less than 0.1 µM; for `CC(C)(O)C(C)(C)OC(c1ccc(-c2nccs2)c2oc(N3CC4CC(C3)N4)nc12)C(F)(F)F` (centres unmarked) [Example 280, 3-(1-(2-(3,6-Diazabicyclo[3.1.1]heptan-3-yl)-7-(thiazol-2-yl)benzo[d]oxazol-4-yl)-2,2,2-trifluoroethoxy)-2,3-dimethylbutan-2-ol]: less than 0.1 µM; for `COC(C)(C)COC(c1ccc(-c2nccs2)c2oc(N3CC4CC(C3)N4)nc12)C(F)(F)F` (centres unmarked) [Example 281, 2-(3,6-Diazabicyclo[3.1.1]heptan-3-yl)-7-(thiazol-2-yl)-4-(2,2,2-trifluoro-1-(2-methoxy-2-methylpropoxy)ethyl)benzo[d]oxazole]: less than 0.1 µM.
Regarding `COC1(COC(c2ccc(-c3nccs3)c3oc(N4CC5CC(C4)N5)nc23)C(F)(F)F)CC1` (centres unmarked) [Example 282, 2-(3,6-Diazabicyclo[3.1.1]heptan-3-yl)-7-(thiazol-2-yl)-4-(2,2,2-trifluoro-1-((1-methoxycyclopropyl)methoxy)ethyl)benzo[d]oxazole], the IC50 is less than 0.1 µM.
Take `COC1(c2cc(-c3nccs3)c3oc(N4CC5CC(C4)N5)nc3c2OC(F)(F)F)CC1` [Example 283, 2-(3,6-Diazabicyclo[3.1.1]heptan-3-yl)-5-(1-methoxycyclopropyl)-7-(thiazol-2-yl)-4-(trifluoromethoxy)benzo[d]oxazole]: the IC50 is less than 0.1 µM.
The same measure for `CC(C)(O)COC(c1ccc(-c2cscn2)c2oc(N3CC4CC(C3)N4)nc12)C(F)(F)F` (centres unmarked) [Example 284, 1-(1-(2-(3,6-Diazabicyclo[3.1.1]heptan-3-yl)-7-(thiazol-4-yl)benzo[d]oxazol-4-yl)-2,2,2-trifluoroethoxy)-2-methylpropan-2-ol]: less than 0.1 µM.
Next, `OC1(COC(c2ccc(-c3cscn3)c3oc(N4CC5CC(C4)N5)nc23)C(F)(F)F)CC1` (centres unmarked) [Example 286, 1-((1-(2-(3,6-Diazabicyclo[3.1.1]heptan-3-yl)-7-(thiazol-4-yl)benzo[d]oxazol-4-yl)-2,2,2-trifluoroethoxy)methyl)cyclopropan-1-ol]: less than 0.1 µM; `COC(C)(C)c1cc(-c2cscn2)c2oc(N3CC4CC(C3)N4)nc2c1OC(F)(F)F` [Example 287, 2-(3,6-Diazabicyclo[3.1.1]heptan-3-yl)-5-(2-methoxypropan-2-yl)-7-(thiazol-4-yl)-4-(trifluoromethoxy)benzo[d]oxazole]: less than 0.1 µM.

For the origin of these results see patent publication US10669283B2, “Compound and pharmacologically acceptable salt thereof” (MEIJI SEIKA PHARMA CO., LTD., priority 2016, dated 2020).
